For this test, the target named is Artemisia annua β-farnesene synthase (SEQ ID NO: 111) variant FS_C_8 F11S/V24D/L18I/M35T/T196S/Y288F/T319S/R348K/T385A/I434T/T446N/I460V/V467I (parent coding se (Artemisia annua, UniProt Q9FXY7)). Put plainly: Steady-state kinetics of purified farnesene synthase variant FS_C_8. The class given is biochemical. The conditions noted are these: purified enzyme.

Consider one molecule from patent US8236512B1, “Methods of developing terpene synthase variants” (Amyris, Inc., priority 2011, dated 2012).

Artemisia annua β-farnesene synthase (SEQ ID NO: 111) variant FS_C_8 F11S/V24D/L18I/M35T/T196S/Y288F/T319S/R348K/T385A/I434T/T446N/I460V/V467I (parent coding se, sequence (Q9FXY7 whole entry F11S/L18I/V24D/M35T/T196S/Y288F/T319S/R348K): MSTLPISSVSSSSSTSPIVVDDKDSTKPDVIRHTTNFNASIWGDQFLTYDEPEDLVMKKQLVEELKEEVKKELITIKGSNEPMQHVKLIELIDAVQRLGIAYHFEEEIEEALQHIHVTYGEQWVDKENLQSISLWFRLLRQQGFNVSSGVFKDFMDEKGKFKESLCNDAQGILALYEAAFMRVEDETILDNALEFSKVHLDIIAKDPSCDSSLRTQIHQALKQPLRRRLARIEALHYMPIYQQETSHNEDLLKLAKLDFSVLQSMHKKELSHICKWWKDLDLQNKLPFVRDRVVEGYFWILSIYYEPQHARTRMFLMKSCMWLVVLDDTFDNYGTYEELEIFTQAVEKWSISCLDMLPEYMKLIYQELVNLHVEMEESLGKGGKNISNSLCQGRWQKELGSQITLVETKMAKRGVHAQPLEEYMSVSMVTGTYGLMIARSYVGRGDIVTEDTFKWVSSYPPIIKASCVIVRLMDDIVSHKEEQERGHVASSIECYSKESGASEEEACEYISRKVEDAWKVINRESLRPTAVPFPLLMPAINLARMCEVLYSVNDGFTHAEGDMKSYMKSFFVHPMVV

As to `CC(C)=CCC/C(C)=C/CC/C(C)=C/CO[P@@](=O)(O)OP(=O)(O)O` (stereo in doubt) [FPP, farnesyl diphosphate], the Km (commonly the substrate concentration at which the rate is half of its maximum) turned out to be 1.55 ± 0.76 µM.
